The text below walks through data of patent US11053239B2, “Compounds as BLC-2-selective apoptosis-inducing agents” (Fochon Pharmaceuticals, Ltd., priority 2017, dated 2021).

Structures are written as SMILES. pIC50: −log10 of the molar value. Read-outs that look alike come from different tables or passages of the source.

One experiment deals with RS4; 11 cells. The experiment is described as follows: Cell proliferation assay (MTS), RS4; 11 cells. The experiment is classed as cell-based. As to conditions: Homo sapiens, RS4-11, 72 h, read-out: RS4; for pIC50: RS4, 11 (ATCC CRL-1873) cell proliferation, 30000 cells/well, 72 h, MTS, mechanism-based readout of Bcl-2 inhibition, 11 IC50. The text has this: (§1) MTS testing kit was purchased from Promega. The RPMI-1640, Fetal bovine serum and Penicillin-Streptomycin were purchased from Gibco. Dimethyl sulfoxide (DMSO) was purchased from Sigma.
(§2) To investigate whether a compound is able to inhibit the activity of Bcl-2 in cells, a mechanism-based assay using DOHH2 (DSMZ No.® ACC 47) and RS4; 11 (ATCC® CRL-1873™) cell was developed. In this assay, inhibition of Bcl-2 was detected by the inhibition of DOHH2 and RS4; 11 cells proliferation. DOHH2 and RS4; 11 cells were cultured in culture flasks to 40-80% confluence in RPMI-1640 plus 10% fetal bovine serum. Cells were collected and plated onto 96-well plates at desired cell density (DOHH2: 5000 cells/well; RS4; 11: 30000 cells/well). Plates were incubated overnight at 37° C., with 5% CO2 to adhere. Compounds were added to the plates, and the final compound concentrations were 10000, 3333, 1111, […], 124, 41, 14, 4.6 and 1.5 nM. Plates plated with DOHH2 or RS4; 11 cells were placed at 37° C., with 5% CO2 for 120 h (DOHH2) or 72 h (RS4; 11) respectively. 20 μl MTS/100 μl medium mixture solution were added to each well and incubate the plates for exactly 2 hours. The reaction was stopped by adding 25 μl 10% SDS per well. Measure absorbance at 490 nm and 650 nm (reference wavelength). ICso was calculated using GraphPad Prism 5.0.

The next experiment deals with DOHH2 cells. The experiment can be described thus: Cell proliferation assay (MTS), DOHH2 cells. The format is cell-based. The settings on record: Homo sapiens, DOHH-2, 120 h, read-out: DOHH2 IC50 (nM).
From the text: as §1, §2

In the case of `CCS(=O)(CC)=NC1CCC(CNc2ccc(S(=O)(=O)NC(=O)c3ccc(N4CCN(CC5=C(c6ccc(Cl)cc6)CC(C)(C)CC5)CC4)cc3Oc3cnc4[nH]ccc4c3)cc2[N+](=O)[O-])CC1` (stereo not drawn) [Example 9B, 2-((1H-pyrrolo[2,3-b]pyridin-5-yl)oxy)-4-(4-((4′-chloro-5,5-dimethyl-3,4,5,6-tetrahydro-[1,1′-biphenyl]-2-yl)methyl)piperazin-1-yl)-N-((4-((((1r,4r)-4-((diethyl(oxo)-λ^6-sulfanylidene)amino)cyclohexyl)methyl)amino)-3-nitrophenyl)sulfonyl)benzamide], the IC50 in the experiment with RS4; 11 cells (11 IC50 (nM)) was determined as 5 nM; in the experiment with DOHH2 cells, 11 nM. Take `C[C@@H](CN1CCS(=O)(=NC#N)CC1)Nc1ccc(S(=O)(=O)NC(=O)c2ccc(N3CCN(CC4=C(c5ccc(Cl)cc5)CC(C)(C)CC4)CC3)cc2Oc2cnc3[nH]ccc3c2)cc1S(=O)(=O)C(F)(F)F` [Example 48, (S)-2-((1H-pyrrolo[2,3-b]pyridin-5-yl)oxy)-4-(4-((4′-chloro-5,5-dimethyl-3,4,5,6-tetrahydro-[1,1′-biphenyl]-2-yl)methyl)piperazin-1-yl)-N-((4-((1-(1-(cyanoimino)-1-oxido-1λ^6-thiomorpholino)propan-2-yl)amino)-3-((trifluoromethyl)sulfonyl)phenyl)sulfonyl)benzamide]: the pIC50 in the experiment with RS4; 11 cells is 6.76. Still for that read-out and setting: the value for `CN=S1(=O)CCN(CCNc2ccc(S(=O)(=O)NC(=O)c3ccc(N4CCN(CC5=C(c6ccc(Cl)cc6)CC(C)(C)CC5)CC4)cc3Oc3cnc4[nH]ccc4c3)cc2[N+](=O)[O-])CC1` [Example 33, 2-((1H-pyrrolo[2,3-b]pyridin-5-yl)oxy)-4-(4-((4′-chloro-5,5-dimethyl-3,4,5,6-tetrahydro-[1,1′-biphenyl]-2-yl)methyl)piperazin-1-yl)-N-((4-((2-(1-(methylimino)-1-oxido-1λ^6-thiomorpholino)ethyl)amino)-3-nitrophenyl)sulfonyl) benzamide] was 7.00. Still for that read-out and setting: the value for `CC(CNc1ccc(S(=O)(=O)NC(=O)c2ccc(N3CCN(CC4=C(c5ccc(Cl)cc5)CC(C)(C)CC4)CC3)cc2Oc2cnc3[nH]ccc3c2)cc1[N+](=O)[O-])N1CCP(C)(=O)CC1` (stereo not drawn) [Example 10, 2-((1H-pyrrolo[2,3-b]pyridin-5-yl)oxy)-4-(4-((4′-chloro-5,5-dimethyl-3,4,5,6-tetrahydro-[1,1′-biphenyl]-2-yl)methyl)piperazin-1-yl)-N-((4-((2-(4-methyl-4-oxido-1,4-azaphosphinan-1-yl)propyl)amino)-3-nitrophenyl)sulfonyl)benzamide] was 6.88; that for `CC1(C)CCC(CN2CCN(c3ccc(C(=O)NS(=O)(=O)c4ccc(NCC5CCS(=N)(=O)CC5)c([N+](=O)[O-])c4)c(Oc4cnc5[nH]ccc5c4)c3)CC2)=C(c2ccc(Cl)cc2)C1` (stereo not drawn) [Example 28, 2-((1H-pyrrolo[2,3-b]pyridin-5-yl)oxy)-4-(4-((4′-chloro-5,5-dimethyl-3,4,5,6-tetrahydro-[1,1′-biphenyl]-2-yl)methyl)piperazin-1-yl)-N-((4-(((1-imino-1-oxidohexahydro-1λ^6-thiopyran-4-yl)methyl)amino)-3-nitrophenyl)sulfonyl) benzamide] was 6.91.

As to `CN=S1(=O)CCC(CNc2ccc(S(=O)(=O)NC(=O)c3ccc(N4CCN(CC5=C(c6ccc(Cl)cc6)CC(C)(C)CC5)CC4)cc3Oc3cnc4[nH]ccc4c3)cc2[N+](=O)[O-])CC1` (stereo not drawn) [Example 29, 2-((1H-pyrrolo[2,3-b]pyridin-5-yl)oxy)-4-(4-((4′-chloro-5,5-dimethyl-3,4,5,6-tetrahydro-[1,1′-biphenyl]-2-yl)methyl)piperazin-1-yl)-N-((4-(((1-(methylimino)-1-oxidohexahydro-1λ^6-thiopyran-4-yl)methyl)amino)-3-nitrophenyl)sulfonyl)benzamide], the pIC50 in the experiment on RS4; 11 cells is 6.49. In the case of `CC1(C)CCC(CN2CCN(c3ccc(C(=O)NS(=O)(=O)c4ccc(NCCN5CCS(=N)(=O)CC5)c([N+](=O)[O-])c4)c(Oc4cnc5[nH]ccc5c4)c3)CC2)=C(c2ccc(Cl)cc2)C1` [Example 46, 2-((1H-pyrrolo[2,3-b]pyridin-5-yl)oxy)-4-(4-((4′-chloro-5,5-dimethyl-3,4,5,6-tetrahydro-[1,1′-biphenyl]-2-yl)methyl)piperazin-1-yl)-N-((4-((2-(1-imino-1-oxido-1λ^6-thiomorpholino)ethyl)amino)-3-nitrophenyl)sulfonyl) benzamide], in the experiment on RS4; 11 cells, the pIC50 is 6.81.

As to `CC(Nc1ccc(S(=O)(=O)NC(=O)c2ccc(N3CCN(CC4=C(c5ccc(Cl)cc5)CC(C)(C)CC4)CC3)cc2Oc2cnc3[nH]ccc3c2)cc1[N+](=O)[O-])C1CCS(=O)(=NC2CC2)CC1` (stereo not drawn) [Example 62, 2-((1H-pyrrolo[2,3-b]pyridin-5-yl)oxy)-4-(4-((4′-chloro-5,5-dimethyl-3,4,5,6-tetrahydro-[1,1′-biphenyl]-2-yl)methyl)piperazin-1-yl)-N-((4-((1-(1-(cyclopropylimino)-1-oxidohexahydro-1λ^6-thiopyran-4-yl)ethyl)amino)-3-nitrophenyl)sulfonyl) benzamide], the pIC50 in the experiment on RS4; 11 cells was 6.80.

Consider `CC1(C)CCC(CN2CCN(c3ccc(C(=O)NS(=O)(=O)c4ccc(NCC(N5CCP(C)(=O)CC5)C(F)(F)F)c([N+](=O)[O-])c4)c(Oc4cnc5[nH]ccc5c4)c3)CC2)=C(c2ccc(Cl)cc2)C1` (stereo not drawn) [Example 14, 2-((1H-pyrrolo[2,3-b]pyridin-5-yl)oxy)-4-(4-((4′-chloro-5,5-dimethyl-3,4,5,6-tetrahydro-[1,1′-biphenyl]-2-yl)methyl)piperazin-1-yl)-N-((3-nitro-4-((3,3,3-trifluoro-2-(4-methyl-4-oxido-1,4-azaphosphinan-1-yl)propyl)amino)phenyl)sulfonyl) benzamide], for which, in the experiment on RS4; 11 cells, the pIC50 was 6.28. Still for that read-out and setting: to `CC1(C)CCC(CN2CCN(c3ccc(C(=O)NS(=O)(=O)c4ccc(NCCN5CCS(=O)(=NS(C)(=O)=O)CC5)c([N+](=O)[O-])c4)c(Oc4cnc5[nH]ccc5c4)c3)CC2)=C(c2ccc(Cl)cc2)C1` [Example 71, 2-((1H-pyrrolo[2,3-b]pyridin-5-yl)oxy)-4-(4-((4′-chloro-5,5-dimethyl-3,4,5,6-tetrahydro-[1,1′-biphenyl]-2-yl)methyl)piperazin-1-yl)-N-((4-((2-(1-((methylsulfonyl)imino)-1-oxido-1λ^6-thiomorpholino)ethyl)amino)-3-nitrophenyl)sulfonyl)benzamide] belongs 6.59; to `CC1(C)CCC(CN2CCN(c3ccc(C(=O)NS(=O)(=O)c4ccc(NCCN5CCS(=O)(=NC(=O)C6CC6)CC5)c([N+](=O)[O-])c4)c(Oc4cnc5[nH]ccc5c4)c3)CC2)=C(c2ccc(Cl)cc2)C1` [Example 69, 2-((1H-pyrrolo[2,3-b]pyridin-5-yl)oxy)-4-(4-((4′-chloro-5,5-dimethyl-3,4,5,6-tetrahydro-[1,1′-biphenyl]-2-yl)methyl)piperazin-1-yl)-N-((4-((2-(1-((cyclopropanecarbonyl)imino)-1-oxido-1λ^6-thiomorpholino)ethyl)amino)-3-nitrophenyl)sulfonyl) benzamide], 6.78; to `CC(=O)N=S1(=O)CCC(CNc2ccc(S(=O)(=O)NC(=O)c3ccc(N4CCN(CC5=C(c6ccc(Cl)cc6)CC(C)(C)CC5)CC4)cc3Oc3cnc4[nH]ccc4c3)cc2[N+](=O)[O-])CC1` (stereo not drawn) [Example 31, 2-((1H-pyrrolo[2,3-b]pyridin-5-yl)oxy)-N-((4-(((1-(acetylimino)-1-oxidohexahydro-1λ^6-thiopyran-4-yl)methyl)amino)-3-nitrophenyl)sulfonyl)-4-(4-((4′-chloro-5,5-dimethyl-3,4,5,6-tetrahydro-[1,1′-biphenyl]-2-yl)methyl)piperazin-1-yl)benzamide], 6.87. The same measure, in the same setting: the value for `CC1(C)CCC(CN2CCN(c3ccc(C(=O)NS(=O)(=O)c4ccc(NCCN5CCS(=O)(=NC#N)CC5)c([N+](=O)[O-])c4)c(Oc4cnc5[nH]ccc5c4)c3)CC2)=C(c2ccc(Cl)cc2)C1` [Example 36, 2-((1H-pyrrolo[2,3-b]pyridin-5-yl)oxy)-4-(4-((4′-chloro-5,5-dimethyl-3,4,5,6-tetrahydro-[1,1′-biphenyl]-2-yl)methyl)piperazin-1-yl)-N-((4-((2-(1-(cyanoimino)-1-oxido-1λ^6-thiomorpholino)ethyl)amino)-3-nitrophenyl)sulfonyl) benzamide] was 6.63; that for `CC(Nc1ccc(S(=O)(=O)NC(=O)c2ccc(N3CCN(CC4=C(c5ccc(Cl)cc5)CC(C)(C)CC4)CC3)cc2Oc2cnc3[nH]ccc3c2)cc1[N+](=O)[O-])C1CCS(=O)(=NC#N)CC1` (stereo not drawn) [Example 32, 2-((1H-pyrrolo[2,3-b]pyridin-5-yl)oxy)-4-(4-((4′-chloro-5,5-dimethyl-3,4,5,6-tetrahydro-[1,1′-biphenyl]-2-yl)methyl)piperazin-1-yl)-N-((4-((1-(1-(cyanoimino)-1-oxidohexahydro-1λ^6-thiopyran-4-yl)ethyl)amino)-3-nitrophenyl)sulfonyl)benzamide] was 6.36.
